The text below walks through data of patent US20130287807A1, “COMPOUNDS FOR TREATING SYMPTOMS ASSOCIATED WITH PARKINSON'S DISEASE” (priority 2008, published 2013).

Square brackets hold non-standard residues; d marks the D form. Ends that are not written are not given here. pGlu = O=C1CC[C@@H](C(=O)O)N1 Where only a bound is given, the exact number is not on record here.

In one assay the test system is p4373. As to the kind of experiment: Mimotope vaccination, serum ELISA against p4373. The assay is classed as in vivo, C57/B16 mice. The conditions noted are these: peptide-KLH vaccines with alum; FIG. 16. As for the experimental part:
(§1) Inhibiting as well as non-inhibiting peptides were coupled to KLH and injected into mice (wildtype C57/B16 mice; subcutaneous injection into the flank) together with an appropriate adjuvant (aluminium hydroxide). Animals were vaccinated 3-6 times in biweekly intervals and sera were taken biweekly as well. Titers to injected peptides, as well as to an irrelevant peptide were determined with every serum. Furthermore, titers against the recombinant human Aβ protein, and against original peptides were determined respectively. In general sera were analysed by reaction against peptides coupled to Bovine Serum Albumin (BSA) and recombinant full length proteins which were immobilised on ELISA plates. Titers were determined using anti mouse IgG specific antibodies. For detailed results see FIGS. 15, 16 and 17 respectively and FIGS. 23, 24 and 25 respectively.
(§2) Female C57/b16 mice, 5-6 mice per group, were subcutaneously immunized with 30 μg peptide coupled to KLH. Control groups were administered original epitope-KLH conjugates respectively. As adjuvant alum was used (always 1 mg per mouse). […] The in vitro ELISA assay to determine the antibody titer was performed with sera of single mice after each vaccination in a two week interval (see FIGS. 15 and 16 respectively). The wells of the ELISA plate were coated with mimotope-BSA conjugate and an irrelevant peptide-BSA conjugate (negative control). […]
In general terms: ELISA stands for enzyme-linked immunosorbent assay.

Assay [1] deals with monoclonal antibody MV-003. As to the kind of experiment: In vitro binding assay (ELISA), BSA-coupled peptides, parental antibody MV-003. Further details: species or system BalbC mice. Conditions: Table 1A; peptide-BSA on plate, compared to original epitope. The procedure: Peptides derived from Phage Display as well as variants thereof were coupled to BSA and bound to ELISA plates (1 μM; as indicated in the respective figures) and subsequently incubated with the monoclonal antibody that was used for the screening procedure to analyse binding capacity of identified peptides.
Legend to Table 1A: the binding capacity is coded by the following binding code: 1:X describes the dilution factor of the parental AB.

The subject of assay [2] is monoclonal antibody MV-003. As to the kind of experiment: In vitro inhibition assay (ELISA), MV-003 binding to original epitope. More on the design: species or system BalbC mice. Conditions: Table 2A; OD at 10 ug peptide compared to original peptide. The procedure:
Different amounts of peptides (concentrations ranging from 10 μg to 0.08 μg; serial dilutions; for MV-002: concentrations ranging from 5 μg to 0.03 μg; serial dilutions), derived from Phage Display were incubated with the monoclonal antibody that was used for the screening procedure. Peptides diminishing subsequent binding of the antibody to the original epitope coated on ELISA plates were considered as inhibiting in this assay.
Legend to Table 2A: the inhibition capacity is coded by the following code: Weak inhibition means more peptide is required to lower AB binding than with the original epitope; strong inhibition means similar peptide amounts are required for mimotope and original epitope for lowering AB binding. Mimotopes are compared to the original peptide as standard. OD at 10 ug peptide used in the assay is used to calculate the competition capacity compared to original peptide.

The test system of another assay is amyloid plaques. As to the kind of experiment: Tg2576 AD mouse model: area occupied by amyloid plaques after mimotope vaccination. The assay is classed as in vivo, Tg2576 mice. The conditions noted are these: FIG. 18 Gr2 p4381, Gr3 p4390, Gr4 p4715, FIG. 26 Gr2 p4675, FIG. 19 Gr2 p4395.
Assay [3] deals with Aβ/truncated/modified forms. As to the kind of experiment: In vivo characterisation of mimotopes: detection of Aβ/truncated/modified forms. Further details: species or system C57/B16 mice; key: +: All peptides listed in Table 5 mount specific immune reactions against full length and/or truncated and modified forms of Aβ or fragments thereof. Conditions: Table 5, MV-003 derived mimotopes. The procedure:
as §1
(§3) Female C57/b16 mice, 5-6 mice per group, were subcutaneously immunized with 30 μg peptide coupled to KLH. Control groups were administered original epitope-KLH conjugates respectively. As adjuvant alum was used (always 1 mg per mouse). […] The in vitro ELISA assay to determine the antibody titer was performed with sera of single mice after each vaccination in a two week interval (see FIGS. 15 and 16 respectively). The wells of the ELISA plate were coated with mimotope-BSA conjugate and an irrelevant peptide-BSA conjugate (negative control). The positive control was performed by reaction of the parental antibody with the respective mimotope-BSA conjugate. The detection was performed with anti-mouse IgG. Additionally, recombinant proteins were immobilised on ELISA plates and sera reacted accordingly. FIGS. 15 to 17 show representative examples for assays used to characterise mimotopes in vivo.
as §3, with “FIGS. 25” for “FIGS. 15”, “and 26” for “and 16”, “respectively). Titers were calculated as OD max/2 in all figures shown.” for “respectively).”, “FIGS. 23, 24 and 25” for “FIGS. 15 to 17”

The next assay deals with p4371. As to the kind of experiment: Mimotope vaccination, serum ELISA against p4371. The assay is classed as in vivo, C57/B16 mice. The conditions noted are these: peptide-KLH vaccines with alum; FIG. 16. The procedure: as §1, §2
The target in assay [4] is monoclonal antibody MV-003. As to the kind of experiment: ELISA on peptide-BSA; code 3 = strong binding, OD halfmax 1:>60000.
In assay [5] the target is monoclonal antibody MV-003. As to the kind of experiment: inhibition ELISA, competitor coated original epitope p4373; code 2 = strong inhibition (as original epitope).

As to EFRHDS-C (EFRHDSC) [p4371], in the assay on p4373, the “immune response / titers against p4373” value is “mount relevant titers”.
For the molecule IRWDTPC [p4395], in assay [1], the “Binding Capacity” value was 2 (medium binding :16-60000). For the same molecule, in assay [2], the “Inhibition Capacity” value is given as 1 (Weaker than original epitope (OD of 10 ug peptide below 12 times of original peptide)). Moreover, the “average occupation (relative area occupied by amyloid deposits in the brain)” value with amyloid plaques (Tg2576, 6 s.c. injections monthly, peptide-KLH on ALUM, mAb 3A5 staining, cortex and hippocampus, control group 0.35%) worked out at 0.21%. Further, the “reduction of area occupied by amyloid plaques following mimotope treatment” value in the assay with amyloid plaques (versus PBS-ALUM control group) was found to be 38%. In addition, the “Detection of Aβ/truncated/modified forms” value in assay [3] was “+”.
As for “p(E)FRHDS-C ([pGlu]FRHDSC) [p4373, non-mimotope peptide, pyroglutamate-modified aa3-8 of Aβ]”, in the assay on p4371, the “immune response / titers against p4371” value was “mount relevant titers”.
IRWDTSLC [p4728]: in assay [4], the dilution factor of the parental antibody at OD halfmax (1:X) (dilutionfactor(1:x)) is above 60000. The molecule also registered an OD at 10 ug peptide relative to OD of original peptide (inhibition ELISA) in assay [5] below 5 fold.
